Measured values reported in paper PMC2636818, “Atomic structures and functional implications of the archaeal RecQ-like helicase Hjm” (BMC Structural Biology, 2009).

T1: PfuHjm (Pyrococcus furiosus, UniProt O73946)
T1 construct: gene hel308; full-length 720 residues, recombinant from pET21d (pHJM100) in E. coli BL21 codonPlus (DE3)-RIL; C-terminal ~60 (Form 1) or 20 (Form 2) residues disordered; one molecule per asymmetric unit in Form 1
T1 sequence (O73946 1-720): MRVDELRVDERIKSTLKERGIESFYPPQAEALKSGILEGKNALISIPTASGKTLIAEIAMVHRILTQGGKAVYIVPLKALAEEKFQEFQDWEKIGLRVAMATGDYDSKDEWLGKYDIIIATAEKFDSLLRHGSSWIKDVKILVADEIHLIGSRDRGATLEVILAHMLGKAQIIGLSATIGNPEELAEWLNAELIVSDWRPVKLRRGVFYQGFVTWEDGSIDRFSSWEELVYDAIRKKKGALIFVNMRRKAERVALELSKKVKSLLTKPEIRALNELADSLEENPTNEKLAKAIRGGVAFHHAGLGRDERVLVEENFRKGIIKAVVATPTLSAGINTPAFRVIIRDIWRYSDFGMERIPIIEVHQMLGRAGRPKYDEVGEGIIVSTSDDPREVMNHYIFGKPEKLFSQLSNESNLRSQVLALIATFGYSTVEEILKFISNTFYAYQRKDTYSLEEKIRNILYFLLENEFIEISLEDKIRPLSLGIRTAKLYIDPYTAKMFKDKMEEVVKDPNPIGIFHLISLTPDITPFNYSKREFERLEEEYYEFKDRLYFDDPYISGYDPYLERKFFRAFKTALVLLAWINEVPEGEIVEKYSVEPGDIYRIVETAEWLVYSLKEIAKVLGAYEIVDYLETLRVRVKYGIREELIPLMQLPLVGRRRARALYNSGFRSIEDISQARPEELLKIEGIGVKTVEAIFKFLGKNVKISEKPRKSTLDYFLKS

T2: PfuHjm (RecQ-like helicase Hjm, Hel308 family) (Pyrococcus furiosus, UniProt O73946 1-720)
T2 sequence: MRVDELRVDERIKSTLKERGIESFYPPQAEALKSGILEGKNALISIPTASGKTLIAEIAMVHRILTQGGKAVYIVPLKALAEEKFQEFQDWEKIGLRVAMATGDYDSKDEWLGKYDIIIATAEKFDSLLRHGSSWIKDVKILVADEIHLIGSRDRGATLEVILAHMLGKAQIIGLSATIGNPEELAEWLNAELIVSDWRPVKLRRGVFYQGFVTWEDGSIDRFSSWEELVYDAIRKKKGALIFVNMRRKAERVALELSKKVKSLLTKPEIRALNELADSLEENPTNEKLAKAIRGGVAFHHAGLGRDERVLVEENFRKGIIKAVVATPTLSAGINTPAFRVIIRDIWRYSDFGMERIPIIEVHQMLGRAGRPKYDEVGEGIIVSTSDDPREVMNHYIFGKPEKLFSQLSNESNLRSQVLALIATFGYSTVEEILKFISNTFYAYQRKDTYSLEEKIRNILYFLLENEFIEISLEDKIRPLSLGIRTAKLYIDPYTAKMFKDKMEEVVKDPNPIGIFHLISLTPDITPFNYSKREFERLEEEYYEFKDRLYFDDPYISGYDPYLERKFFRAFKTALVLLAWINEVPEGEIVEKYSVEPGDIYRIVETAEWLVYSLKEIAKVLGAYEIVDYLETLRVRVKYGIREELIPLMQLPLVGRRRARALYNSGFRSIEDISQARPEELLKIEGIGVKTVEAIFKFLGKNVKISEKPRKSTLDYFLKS


Legend:
PfuHjm = molecular target: T1, PfuHjm; assay: X-ray crystal structure, soaked crystal; type: binding; conditions: Form 1 crystal soaked with 1 mM ATPgammaS, ADP modelled as hydrolysed product; 100 mM citrate pH 5.0, 1.6 M ammonium sulfate; 2.4 A; nucleotide site
[1] = molecular target: T2, PfuHjm (RecQ-like helicase Hjm, Hel308 …); assay: negative-stain single-particle EM (23 A) of complex purified by gel filtration; no nucleotide added; 50 mM Tris-HCl pH 8.0, 0.15 M NaCl, 0.5 mM EDTA, 1 mM DTT, 10% glycerol, room temperature, 20 min, 1:1 protein/DNA; conditions: protein: recombinant; hairpin with 3' overhang

Row | Molecule | X-ray crystal structure, soaked crystal (PfuHjm) | binding result [1]
1 | Nc1ncnc2c1ncn2[C@@H]1O[C@H](COP(=O)(O)OP(=O)(O)O)[C@@H](O)[C@H]1O [ADP] | electron density corresponding to the hydrolyzed product ADP, rather than the soaked ATPγS | –
2 | AGCACTGCTATTCCCTAGCAGTGCTAGATGCACGAC (structured_DNA) [3' overhang hairpin DNA] | – | binds
